“And” between values parts separate entries of the source, which are not always exact repeats. Identical values can stand only once. Like-named read-outs stand apart in the source and are kept apart here.
Experiments:
[1] = test system: male wistar rats with Monocrotaline-induced PAH; test: Inhibition of PAH development, monocrotaline-induced pulmonary arterial hypertension; assay type: in vivo, rat; details: Mct 60 mg/kg sc, 5 mg/kg IP daily for 21 days
Description: Experimental pulmonary arterial hypertension (PAH) was induced in male wistar rats (Charles River Laboratories) weighing between 250 and 300 g by subcutaneous injection of 60 mg/kg Monocrotaline (Met) on Day 1. The Mct (Sigma Aldrich) was dissolved in 1N HCl at a concentration of 300 mg/ml as per M. Rey et al., Current Protocols in Pharmacology, 5.56.1-5.56.11, September 2009, which document is incorporated by reference herein in its entirety. Mct was then neutralized by adding 1N NaOH and diluted with sterile distilled water to a final concentration of 20 mg/ml. An injection volume of 3 ml/kg was used to achieve the 60 mg/kg dose.
A total of 44 rats were injected as follows: 15 rats were injected subcutaneously with Mct (untreated PAH controls), 15 rats were injected subcutaneously with Mct followed by daily IP injection with 5 mg/kg (R)-2-(3,4-dimethoxyphenol)-2-isopropyl-6-azaheptanitril for 21 days (R-D617 treated group), and 14 rats were injected subcutaneously with neutralized solvent having no Mct (non-PAH controls (sham)).
All animals were then housed (allowed food and water ad lib). The animals were anaesthetized 21 days after injection, and pulmonary arterial pressure was measured and expressed as mean pulmonary arterial pressure (mPAP mmHg). A terminal sample was also obtained and used to obtain terminal drug concentrations. […]

[2] = test system: other receptors tested, including calcium channels; test: Single high concentration test on other receptors (data not included); assay type: binding; details: single high concentration 1×10^−5M
[3] = Terminal plasma drug concentrations by HPLC in the PAH study; assay type: in vivo; details: rat, 5 mg/kg IP daily for 21 days
Description: All animals were then housed (allowed food and water ad lib). The animals were anaesthetized 21 days after injection, and pulmonary arterial pressure was measured and expressed as mean pulmonary arterial pressure (mPAP mmHg). A terminal sample was also obtained and used to obtain terminal drug concentrations. Following exsanguination, cardiac tissues were excised and used to assess the wet weight of the right cardiac ventricle.

[4] = molecular target: T1, 5-HT transporter (h) (Homo sapiens, UniProt P31645); test: 5-HT transporter (h) antagonist radioligand binding assay, human recombinant CHO cells, [3H]imipramine
T1 construct: expressed in transfected cells; host or cells: CHO cells
T1 sequence (P31645 whole entry): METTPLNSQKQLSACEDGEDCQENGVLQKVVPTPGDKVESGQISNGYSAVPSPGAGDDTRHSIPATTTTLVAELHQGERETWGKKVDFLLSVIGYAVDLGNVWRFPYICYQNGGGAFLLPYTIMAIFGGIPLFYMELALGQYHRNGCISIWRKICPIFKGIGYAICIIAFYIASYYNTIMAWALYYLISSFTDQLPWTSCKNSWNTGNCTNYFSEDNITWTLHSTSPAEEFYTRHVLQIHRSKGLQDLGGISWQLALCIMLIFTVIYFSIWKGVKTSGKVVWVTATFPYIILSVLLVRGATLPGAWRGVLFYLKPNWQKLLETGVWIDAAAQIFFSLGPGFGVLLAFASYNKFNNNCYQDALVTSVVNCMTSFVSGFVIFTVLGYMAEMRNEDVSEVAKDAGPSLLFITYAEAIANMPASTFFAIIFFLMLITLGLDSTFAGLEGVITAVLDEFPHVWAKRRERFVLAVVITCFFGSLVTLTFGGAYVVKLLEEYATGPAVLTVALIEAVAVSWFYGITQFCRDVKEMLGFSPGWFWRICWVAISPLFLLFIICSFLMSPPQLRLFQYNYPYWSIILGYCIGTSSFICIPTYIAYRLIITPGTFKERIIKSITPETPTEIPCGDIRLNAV
Description: For its discussion of the assay method, Tatsumi et al. is incorporated herein by reference in its entirety.
The specific ligand binding to the receptors is defined as the difference between the total binding and the nonspecific binding determined in the presence of an excess of unlabelled ligand.
The results are expressed as a percent of control specific binding ((measured specific binding/control specific binding)×100) and as a percent inhibition of control specific binding (100−((measured specific binding/control specific binding)×100)) obtained in the presence of (R)-2-(3,4-dimethoxyphenol)-2-isopropyl-6-azaheptanitril.
(§1) The IC50 values (concentration causing a half-maximal inhibition of control specific binding) and Hill coefficients (nH) were determined by non-linear regression analysis of the competition curves generated with mean replicate values using Hill equation curve fitting (Y=D+[(A−D)/(1+(C/C50)^nH)], where Y=specific binding, D=minimum specific binding, A=maximum specific binding, C=compound concentration, C50=IC50, and nH=slope factor).
The inhibition constants (Ki) were calculated using the Cheng Prusoff equation (Ki=IC50/(1+(L/KD)), where L=concentration of radioligand in the assay, and KD=affinity of the radioligand for the receptor).

[5] = molecular target: T2, 5-HT uptake (rat brain synaptosomes) (Rattus norvegicus, UniProt P31652); test: In vitro 5-HT uptake assay using rat brain synaptosomes; assay type: biochemical; details: for % of Control Values, 1st / % of Control Values, 2nd / % of Control Values, Mean: Table 2-2
T2 construct: from tissue; host or cells: rat brain synaptosomes
T2 sequence (P31652 whole entry): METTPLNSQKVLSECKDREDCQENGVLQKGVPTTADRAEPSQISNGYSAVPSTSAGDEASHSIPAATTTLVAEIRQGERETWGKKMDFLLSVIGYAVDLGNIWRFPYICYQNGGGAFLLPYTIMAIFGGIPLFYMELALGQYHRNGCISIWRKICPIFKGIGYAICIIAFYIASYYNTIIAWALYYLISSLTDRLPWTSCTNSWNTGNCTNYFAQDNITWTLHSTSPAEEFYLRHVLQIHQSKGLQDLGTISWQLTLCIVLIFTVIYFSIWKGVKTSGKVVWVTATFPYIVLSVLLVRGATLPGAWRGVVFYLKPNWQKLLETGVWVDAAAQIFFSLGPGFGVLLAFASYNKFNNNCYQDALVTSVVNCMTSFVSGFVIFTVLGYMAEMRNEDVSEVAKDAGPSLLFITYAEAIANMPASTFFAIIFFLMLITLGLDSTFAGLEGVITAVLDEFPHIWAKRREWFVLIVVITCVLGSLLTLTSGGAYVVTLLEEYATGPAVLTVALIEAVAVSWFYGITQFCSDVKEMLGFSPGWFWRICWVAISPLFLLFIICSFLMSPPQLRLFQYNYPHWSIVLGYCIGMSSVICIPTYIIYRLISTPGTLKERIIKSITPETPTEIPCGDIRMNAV
Description: Briefly, the uptake assay was performed using rat brain synaptosomes according to the method generally described in Perovic and Muller, Arzneim-Forsch. […] For its disclosure of the above-noted assay, Perovic and Muller is incorporated herein by reference in its entirety.
The results are expressed as a percent of control specific activity ((measured specific activity/control specific activity)×100) obtained in the presence of (R)-2-(3,4-dimethoxyphenol)-2-isopropyl-6-azaheptanitril.
as §1, with “activity)” for “binding)”, “inhibition” for “competition”, “activity,” for “binding,”, “C50=IC50” for “C50=IC50,”

[6] = test system: CYP; details: prior non-clinical studies; cited from earlier work
[7] = molecular target: p-glycoprotein (Homo sapiens, UniProt P08183); details: prior non-clinical studies; cited from earlier work
Sequence of p-glycoprotein (P08183 whole entry): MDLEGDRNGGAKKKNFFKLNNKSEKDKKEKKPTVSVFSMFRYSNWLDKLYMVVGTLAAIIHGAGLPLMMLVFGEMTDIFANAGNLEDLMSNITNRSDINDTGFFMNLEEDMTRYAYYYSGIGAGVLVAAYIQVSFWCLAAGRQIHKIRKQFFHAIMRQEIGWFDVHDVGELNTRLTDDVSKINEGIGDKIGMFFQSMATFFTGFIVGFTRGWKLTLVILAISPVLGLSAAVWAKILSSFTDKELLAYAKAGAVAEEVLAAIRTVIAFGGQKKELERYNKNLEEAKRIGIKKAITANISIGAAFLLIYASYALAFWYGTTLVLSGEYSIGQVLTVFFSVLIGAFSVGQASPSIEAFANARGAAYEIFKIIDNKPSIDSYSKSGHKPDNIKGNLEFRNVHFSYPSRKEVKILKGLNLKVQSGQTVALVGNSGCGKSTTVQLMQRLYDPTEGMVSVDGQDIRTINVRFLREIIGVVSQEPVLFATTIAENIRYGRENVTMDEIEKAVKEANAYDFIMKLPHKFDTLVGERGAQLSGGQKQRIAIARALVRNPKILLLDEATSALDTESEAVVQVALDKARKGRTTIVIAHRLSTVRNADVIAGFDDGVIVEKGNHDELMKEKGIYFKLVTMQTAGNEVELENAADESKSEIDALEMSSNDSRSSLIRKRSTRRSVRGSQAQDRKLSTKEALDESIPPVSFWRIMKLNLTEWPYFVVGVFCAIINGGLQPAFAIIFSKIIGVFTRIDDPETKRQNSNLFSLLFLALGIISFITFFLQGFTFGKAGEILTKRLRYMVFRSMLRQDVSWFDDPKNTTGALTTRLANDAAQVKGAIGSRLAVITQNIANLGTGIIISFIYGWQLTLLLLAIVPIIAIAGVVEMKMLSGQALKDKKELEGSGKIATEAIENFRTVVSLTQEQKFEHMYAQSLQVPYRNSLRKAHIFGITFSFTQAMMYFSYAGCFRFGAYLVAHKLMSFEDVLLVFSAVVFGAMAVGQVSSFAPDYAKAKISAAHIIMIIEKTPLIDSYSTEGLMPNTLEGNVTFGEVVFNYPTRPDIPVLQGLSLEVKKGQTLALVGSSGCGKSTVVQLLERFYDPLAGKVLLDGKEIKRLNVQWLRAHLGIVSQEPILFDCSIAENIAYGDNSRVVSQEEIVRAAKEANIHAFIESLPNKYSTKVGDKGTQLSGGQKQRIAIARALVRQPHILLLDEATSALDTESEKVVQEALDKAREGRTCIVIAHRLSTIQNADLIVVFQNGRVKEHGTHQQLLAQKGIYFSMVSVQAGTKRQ

[8] = molecular target: HERG (Homo sapiens, UniProt Q12809); details: prior non-clinical studies; cited from earlier work
Sequence of HERG (Q12809 whole entry): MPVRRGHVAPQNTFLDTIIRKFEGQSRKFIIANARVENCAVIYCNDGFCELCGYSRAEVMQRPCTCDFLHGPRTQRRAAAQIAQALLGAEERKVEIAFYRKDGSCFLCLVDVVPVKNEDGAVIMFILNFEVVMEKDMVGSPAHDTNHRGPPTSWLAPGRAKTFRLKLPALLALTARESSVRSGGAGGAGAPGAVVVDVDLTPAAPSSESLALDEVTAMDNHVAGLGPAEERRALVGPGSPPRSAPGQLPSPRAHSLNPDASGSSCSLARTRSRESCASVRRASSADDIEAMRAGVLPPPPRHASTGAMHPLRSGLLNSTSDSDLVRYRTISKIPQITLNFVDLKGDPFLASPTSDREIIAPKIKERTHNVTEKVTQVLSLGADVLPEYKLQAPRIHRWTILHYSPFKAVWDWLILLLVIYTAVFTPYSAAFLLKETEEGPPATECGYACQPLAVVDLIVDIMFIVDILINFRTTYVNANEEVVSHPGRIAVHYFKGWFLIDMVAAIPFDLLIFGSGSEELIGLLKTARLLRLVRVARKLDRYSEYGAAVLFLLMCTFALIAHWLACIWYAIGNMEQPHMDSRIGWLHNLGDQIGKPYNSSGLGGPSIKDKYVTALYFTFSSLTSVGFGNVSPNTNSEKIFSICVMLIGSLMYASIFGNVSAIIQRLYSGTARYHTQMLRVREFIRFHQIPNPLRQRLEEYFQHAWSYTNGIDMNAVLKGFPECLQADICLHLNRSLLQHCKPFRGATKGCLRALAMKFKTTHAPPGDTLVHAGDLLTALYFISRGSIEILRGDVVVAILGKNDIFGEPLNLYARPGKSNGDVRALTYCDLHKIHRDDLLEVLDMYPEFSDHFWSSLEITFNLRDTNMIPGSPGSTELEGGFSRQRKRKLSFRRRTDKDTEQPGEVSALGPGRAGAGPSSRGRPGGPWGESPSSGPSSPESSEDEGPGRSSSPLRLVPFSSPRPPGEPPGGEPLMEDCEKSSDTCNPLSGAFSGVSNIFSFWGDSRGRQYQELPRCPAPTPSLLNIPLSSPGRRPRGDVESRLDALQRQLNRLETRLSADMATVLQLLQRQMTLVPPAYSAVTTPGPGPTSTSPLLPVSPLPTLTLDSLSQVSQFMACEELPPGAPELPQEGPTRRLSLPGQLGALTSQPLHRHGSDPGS

[9] = % of the potency of verapamil; cited from earlier work

Question: Which results are given for `CNCCC[C@](C#N)(c1ccc(OC)c(OC)c1)C(C)C` [(R)-2-(3,4-dimethoxyphenol)-2-isopropyl-6-azaheptanitril]?
Answer: mPAP (Mean +/− SEM) ([1]; measured 21 days after injection, untreated PAH control 36.0, sham 14.7): 30.0 +/− 2.5 mmHg; Right Ventricle Weight (Mean +/− SEM) ([1]; wet weight, untreated PAH control 317.9, sham 167.4): 288.7 +/− 13.4; inhibition at the majority of the other receptors tested [2]: < 75%; mean terminal plasma concentration of (R)-2-(3,4-dimethoxyphenol)-2-isopropyl-6-azaheptanitril ([3]; R-D617 treated group): 18.5 ng/mL; terminal plasma concentration of R-verapamil after R-D617 treatment ([3]; lower limit of quantification 1 ng/ml): < 1 ng/mL; R-verapamil measured in terminal plasma of the R-D617 treated group ([3]; result in words): no quantifiable R-verapamil; % Inhibition of Control Specific Binding ([4]; Table 1-1, test concentration 1.0E−05 M): 100%; % of Control Specific Binding, 1st ([4]; Table 1-2, 1.0E−05 M): −0.6%; % of Control Specific Binding, 2nd ([4]; Table 1-2, 1.0E−05 M): 0.8%; % of Control Specific Binding, Mean ([4]; Table 1-2, 1.0E−05 M): 0.1%; nH (Hill coefficient) ([4]; Table 1-4): 1.0; Ki ([4]; Table 1-4, Cheng Prusoff): 22 nM; % of Control Specific Binding, 1st ([4]; Table 1-5, 1.0E−05 M): 0.5%; % of Control Specific Binding, 2nd ([4]; Table 1-5, 1.0E−05 M): 0.2%; % of Control Specific Binding, Mean ([4]; Table 1-5, 1.0E−05 M): 0.3%; % of Control Specific Binding, 1st ([4]; Table 1-5, 1.0E−06 M): 5.9%; % of Control Specific Binding, 2nd ([4]; Table 1-5, 1.0E−06 M): 3.7%; % of Control Specific Binding, Mean ([4]; Table 1-5, 1.0E−06 M): 4.8%; % of Control Specific Binding, 1st ([4]; Table 1-5, 1.0E−07 M): 36.5%; % of Control Specific Binding, 2nd ([4]; Table 1-5, 1.0E−07 M): 32.5%; % of Control Specific Binding, Mean ([4]; Table 1-5, 1.0E−07 M): 34.5%; % of Control Specific Binding, 1st ([4]; Table 1-5, 1.0E−08 M): 83.3%; % of Control Specific Binding, 2nd ([4]; Table 1-5, 1.0E−08 M): 84.8%; % of Control Specific Binding, Mean ([4]; Table 1-5, 1.0E−08 M): 84.0%; % of Control Specific Binding, 1st ([4]; Table 1-5, 3.0E−07 M): 15.3%; % of Control Specific Binding, 2nd ([4]; Table 1-5, 3.0E−07 M): 13.1%; % of Control Specific Binding, Mean ([4]; Table 1-5, 3.0E−07 M): 14.2%; % of Control Specific Binding, 1st ([4]; Table 1-5, 3.0E−08 M): 66.6%; % of Control Specific Binding, 2nd ([4]; Table 1-5, 3.0E−08 M): 58.0%; % of Control Specific Binding, Mean ([4]; Table 1-5, 3.0E−08 M): 62.3%; % of Control Specific Binding, 1st ([4]; Table 1-5, 3.0E−09 M): 101.5%; % of Control Specific Binding, 2nd ([4]; Table 1-5, 3.0E−09 M): 88.4%; % of Control Specific Binding, Mean ([4]; Table 1-5, 3.0E−09 M): 94.9%; % of Control Specific Binding, 1st ([4]; Table 1-5, 3.0E−10 M): 104.1%; % of Control Specific Binding, 2nd ([4]; Table 1-5, 3.0E−10 M): 102.0%; % of Control Specific Binding, Mean ([4]; Table 1-5, 3.0E−10 M): 103.1%; IC50 ([4]; read-out: IC50 for inhibition of binding at the serotonin transporter): 47 nM; inhibition of the serotonin transporter ([4]; single high concentration 1×10^−5M): 100%; IC50 ([5]; Table 2-1, 5-HT uptake): 240 nM; % of Control Values, 1st ([5]; 1.0E−05 M): 1.0%; % of Control Values, 2nd ([5]; 1.0E−05 M): 5.2%; % of Control Values, Mean ([5]; 1.0E−05 M): 3.1%; % of Control Values, 1st ([5]; 1.0E−06 M): 22.1%; % of Control Values, 2nd ([5]; 1.0E−06 M): 21.1%; % of Control Values, Mean ([5]; 1.0E−06 M): 21.6%; % of Control Values, 1st ([5]; 1.0E−07 M): 79.8%; % of Control Values, 2nd ([5]; 1.0E−07 M): 81.9%; % of Control Values, Mean ([5]; 1.0E−07 M): 80.8%; % of Control Values, 1st ([5]; 1.0E−08 M): 101.7%; % of Control Values, 2nd ([5]; 1.0E−08 M): 94.0%; % of Control Values, Mean ([5]; 1.0E−08 M): 97.9%; % of Control Values, 1st ([5]; 3.0E−07 M): 47.8%; % of Control Values, 2nd ([5]; 3.0E−07 M): 44.9%; % of Control Values, Mean ([5]; 3.0E−07 M): 46.3%; % of Control Values, 1st ([5]; 3.0E−08 M): 108.1%; % of Control Values, 2nd ([5]; 3.0E−08 M): 82.8%; % of Control Values, Mean ([5]; 3.0E−08 M): 95.4%; % of Control Values, 1st ([5]; 3.0E−09 M): 100.2%; % of Control Values, 2nd ([5]; 3.0E−09 M): 113.4%; % of Control Values, Mean ([5]; 3.0E−09 M): 106.8%; % of Control Values, 1st ([5]; 3.0E−10 M): 113.5%; % of Control Values, 2nd ([5]; 3.0E−10 M): 113.3%; % of Control Values, Mean ([5]; 3.0E−10 M): 113.4%

Question: What does the source list for `CNCCCC(C#N)(c1ccc(OC)c(OC)c1)C(C)C` [D-617, 2-(3,4-dimethoxyphenol)-2-isopropyl-6-azaheptanitril]?
Answer: CYP-mediated metabolism: substrate / inhibitor [6]: substrate for but not a potent inhibitor of; p-glycoprotein transport: substrate / inhibitor [7]: substrate for, but not an inhibitor of; block of HERG-induced currents [8]: does not block; cardiovascular potency compared with verapamil [9]: 2.6%

Question: For `CN(C)CCCN1c2ccccc2CCc2ccccc21` [imipramine, reference compound], which “nH (Hill coefficient)” value [4] is on record?
Answer: The value was 0.9 and 1.2.

Question: For `COc1ccc(CCNCCCC(C#N)(c2ccc(OC)c(OC)c2)C(C)C)cc1OC` (stereo not drawn) [nor-verapamil], which “cardiovascular potency compared with verapamil” value [9] is on record?
Answer: The value was 21.9%.

Reference: US20110301245A1, “(R)-2-(3,4-DIMETHOXYPHENOL)-2-ISOPROPYL-6-AZAHEPTANITRIL FORMULAITONS, ANDTHE USE OF SUCH FORMULATIONS IN THE TREATMENT OF CONDITIONS MEDIATED BY THE SEROTONIN TRANSPORTER” (AGI THERAPEUTICS, PLC, priority 2010, published 2011)
